According to ChEMBL document CHEMBL3526145, “Metabolism, excretion, and pharmacokinetics of ((3,3-difluoropyrrolidin-1-yl)((2S,4S)-4-(4-(pyrimidin-2-yl)piperazin-1-yl)pyrrolidin-2-yl)methanone, a dipeptidyl peptidase inhibitor, in rat, dog and human” (Drug Metab Dispos, 2012):

Legend:
[1] = Drug level in urine of human treated with [14C]PF-00734200 at […], po administered as single dose by LC-MS/MS method; assay type: ADME, organism-based; parameters: route oral; details: in vivo
Homo sapiens [2] = assay: Total drug level in human treated with [14C]PF-00734200 assessed as total radio activity at […], po administered as single dose […]; assay type: ADME, organism-based; parameters: route oral; details: in vivo
[3] = Retention time of the compound by HPLC method; assay type: physicochemical
Rattus norvegicus = assay: Total drug level in Sprague-Dawley rat treated with [14C]PF-00734200 assessed as total radio activity at 5 mg/kg, po administered as single dose […]; assay type: ADME, organism-based; parameters: dose 5 mg/kg, route oral; details: in vivo
[4] = Drug level in feces of Sprague-Dawley rat treated with [14C]PF-00734200 at 5 mg/kg, po administered as single dose by LC-MS/MS method; assay type: ADME, organism-based; parameters: dose 5 mg/kg, route oral; details: in vivo
Plasma [5] = assay: Drug level in beagle dog plasma treated with [14C]PF-00734200 at 5 mg/kg, po administered as single dose by LC-MS/MS method; assay type: ADME, organism-based, Canis lupus familiaris; parameters: dose 5 mg/kg, route oral; details: in vivo
[6] = Drug level in bile of bile duct-cannulated Sprague-Dawley rat treated with [14C]PF-00734200 at 5 mg/kg, po administered as single dose by LC-MS/MS method; assay type: ADME, organism-based; parameters: dose 5 mg/kg, route oral; details: in vivo
[7] = Drug level in urine of beagle dog treated with [14C]PF-00734200 at 5 mg/kg, po administered as single dose by LC-MS/MS method; assay type: ADME, organism-based, Canis lupus familiaris; parameters: dose 5 mg/kg, route oral; details: in vivo
[8] = Drug level in urine of Sprague-Dawley rat treated with [14C]PF-00734200 at 5 mg/kg, po administered as single dose by LC-MS/MS method; assay type: ADME, organism-based; parameters: dose 5 mg/kg, route oral; details: in vivo
Canis familiaris = assay: Total drug level in beagle dog treated with [14C]PF-00734200 assessed as total radio activity at 5 mg/kg, po administered as single dose […]; assay type: ADME, organism-based, Canis lupus familiaris; parameters: dose 5 mg/kg, route oral; details: in vivo
Plasma [9] = assay: Drug level in Sprague-Dawley rat plasma treated with [14C]PF-00734200 at 5 mg/kg, po administered as single dose by LC-MS/MS method; assay type: ADME, organism-based; parameters: dose 5 mg/kg, route oral; details: in vivo
Homo sapiens [10] = assay: AUC (0 to infinity) in human treated with [14C]PF-00734200 at […], po administered as single dose; assay type: ADME, organism-based, Plasma; parameters: route oral, time infinity; details: in vivo
Serum = assay: Drug level in human serum treated with [14C]PF-00734200 at […], po administered as single dose by LC-MS/MS method; assay type: ADME, organism-based; parameters: route oral; details: in vivo
Homo sapiens [11] = assay: AUC (0 to 168 hrs) in human treated with [14C]PF-00734200 at […], po administered as single dose; assay type: ADME, organism-based, Plasma; parameters: time < 168 hr, route oral; details: in vivo
Homo sapiens [12] = assay: Cmax in human treated with [14C]PF-00734200 at […], po administered as single dose; assay type: ADME, organism-based; parameters: route oral; details: in vivo
Homo sapiens [13] = assay: Oral clearance in human treated with [14C]PF-00734200 at […], po administered as single dose; assay type: ADME, organism-based; parameters: route oral; details: in vivo
[14] = Drug level in feces of beagle dog treated with [14C]PF-00734200 at 5 mg/kg, po administered as single dose by LC-MS/MS method; assay type: ADME, organism-based, Canis lupus familiaris; parameters: dose 5 mg/kg, route oral; details: in vivo
[15] = Drug level in feces of human treated with [14C]PF-00734200 at […], po administered as single dose by LC-MS/MS method; assay type: ADME, organism-based; parameters: route oral; details: in vivo
Homo sapiens [16] = assay: Elimination half life in human treated with [14C]PF-00734200 at […], po administered as single dose; assay type: ADME, organism-based; parameters: route oral; details: in vivo
Cytochrome P450 3A4 = Cytochrome P450 3A4 (Homo sapiens, UniProt P08684); assay: Drug metabolism assessed as human CYP3A4-mediated metabolite (3,3-difluoropyrrolidin-1-yl){(2S,4S)-4-[4-(5-hydroxypyrimidin-2-yl)piperazin-1-yl]pyrrolidin-2-yl}methanone formation by LC-MS/MS method; assay type: ADME; details: recombinant enzyme
Cytochrome P450 2D6 = Cytochrome P450 2D6 (Homo sapiens, UniProt P10635); assay: Drug metabolism assessed as human CYP2D6-mediated metabolite (3,3-difluoropyrrolidin-1-yl){(2S,4S)-4-[4-(5-hydroxypyrimidin-2-yl)piperazin-1-yl]pyrrolidin-2-yl}methanone formation by LC-MS/MS method; assay type: ADME; details: recombinant enzyme
Homo sapiens [17] = assay: Tmax in human treated with [14C]PF-00734200 at […], po administered as single dose; assay type: ADME, organism-based; parameters: route oral; details: in vivo

Chain of Cytochrome P450 3A4 (P08684 whole entry): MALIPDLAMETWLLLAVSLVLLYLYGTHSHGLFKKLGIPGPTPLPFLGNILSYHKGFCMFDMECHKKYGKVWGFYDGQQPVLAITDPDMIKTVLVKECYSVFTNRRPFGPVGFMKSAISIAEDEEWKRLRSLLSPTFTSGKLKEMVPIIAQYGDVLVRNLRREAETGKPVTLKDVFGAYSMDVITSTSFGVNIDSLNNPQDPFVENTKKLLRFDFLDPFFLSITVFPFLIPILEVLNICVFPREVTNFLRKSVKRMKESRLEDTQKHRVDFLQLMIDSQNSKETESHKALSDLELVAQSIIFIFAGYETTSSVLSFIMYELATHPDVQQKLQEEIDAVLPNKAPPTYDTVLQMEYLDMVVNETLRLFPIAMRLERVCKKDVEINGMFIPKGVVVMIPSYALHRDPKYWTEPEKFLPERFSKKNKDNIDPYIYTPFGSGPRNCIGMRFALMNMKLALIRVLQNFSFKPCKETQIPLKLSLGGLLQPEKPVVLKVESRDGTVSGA
Chain of Cytochrome P450 2D6 (P10635 whole entry): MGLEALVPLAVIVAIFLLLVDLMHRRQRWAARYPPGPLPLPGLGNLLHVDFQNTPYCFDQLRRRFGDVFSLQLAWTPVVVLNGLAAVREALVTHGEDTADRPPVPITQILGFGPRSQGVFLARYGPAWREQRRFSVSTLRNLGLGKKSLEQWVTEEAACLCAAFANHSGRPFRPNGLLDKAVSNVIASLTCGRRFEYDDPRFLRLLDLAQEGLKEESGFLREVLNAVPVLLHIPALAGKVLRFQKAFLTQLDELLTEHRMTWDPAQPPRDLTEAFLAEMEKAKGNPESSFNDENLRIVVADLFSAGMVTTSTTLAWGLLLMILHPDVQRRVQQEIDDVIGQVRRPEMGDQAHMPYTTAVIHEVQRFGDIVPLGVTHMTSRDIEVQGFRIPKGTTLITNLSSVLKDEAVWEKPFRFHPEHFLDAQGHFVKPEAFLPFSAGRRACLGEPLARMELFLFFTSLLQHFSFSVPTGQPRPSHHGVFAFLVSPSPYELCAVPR

Drug uptake [1] [%] | Drug uptake (Homo sapiens [2]) [%] | Retention_time [3] [min] | Drug uptake (Rattus norvegicus) [%] | Drug uptake (Plasma [5]) [%] | Drug uptake [7] [%] | SMILES | other results
1 | 1 | 30.2 | – | – | – | NC(=O)N1C[C@@H](N2CCN(c3ncccn3)CC2)C[C@H]1C(=O)N1CCC(F)(F)C1 | –
– | – | 28.2 | – | – | – | O=C([C@@H]1C[C@H](N2CCN(c3ncc(O)cn3)CC2)CN1[C@@H]1O[C@H](CO)[C@@H](O)[C@H](O)[C@H]1O)N1CCC(F)(F)C1 | –
– | – | 27.4 | 5.5 | – | – | O=CN1C[C@@H](N2CCN(c3ncc(O)cn3)CC2)C[C@H]1C(=O)N1CCC(F)(F)C1 | Drug uptake [4]: 5.5%
0.9 | 0.9 | 29.2 | – | – | – | O=C([C@@H]1C[C@H](N2CCN(c3ncccn3)CC2)CN1[C@@H]1O[C@H](CO)[C@@H](O)[C@H](O)[C@H]1O)N1CCC(F)(F)C1 | –
– | – | 24.5 | – | 1.8 | 2.6 | O=C([C@@H]1C[C@H](N2CCN(c3ncc(OS(=O)(=O)O)cn3)CC2)CN1)N1CCC(F)(F)C1 | Drug uptake [6]: 2.1%
– | – | 24.5 | – | 1.8 | – | O=C(O)[C@H]1O[C@@H](OC(=O)N2C[C@@H](N3CCN(c4ncc(O)cn4)CC3)C[C@H]2C(=O)N2CCC(F)(F)C2)[C@H](O)[C@@H](O)[C@@H]1O | –
48.5 | 48.9 | – | 12.1 | 80.1 | 25.6 | O=C([C@@H]1C[C@H](N2CCN(c3ncccn3)CC2)CN1)N1CCC(F)(F)C1 [GOSOGLIPTIN] | Drug uptake [8]: 11%; AUC (Homo sapiens [10]): 2660 ng·h/mL; Drug uptake (Canis familiaris): 27.4%; Drug uptake (Plasma [9]): 79.9%; Drug uptake (Serum): 94.5%; AUC (Homo sapiens [11]): 2560 ng·h/mL; Cmax (Homo sapiens [12]): 241.3 ng/mL; CL/F (Homo sapiens [13]): 125.3 mL/min; Drug uptake [14]: 1.8%; Drug uptake [15]: 0.4%; beta t1/2 (Homo sapiens [16]): 63.5 h; Drug metabolism (Cytochrome P450 3A4): metabolite_detected; Drug metabolism (Cytochrome P450 2D6): metabolite_detected; Tmax (Homo sapiens [17]): 1 h; Drug uptake [4]: 1.1%

SMILES | Drug uptake [1] [%] | Drug uptake (Homo sapiens [2]) [%] | Retention_time [3] [min] | Drug uptake (Rattus norvegicus) [%] | Drug uptake (Plasma [5]) [%] | Drug uptake [7] [%] | other results
c1cnc(N2CCNCC2)nc1 [2-PIPERAZIN-1-YL-PYRIMIDINE] | – | – | 6.5 | 1.4 | 0.7 | 0.9 | Drug uptake [8]: 1.4%; Drug uptake (Canis familiaris): 0.9%; Drug uptake (Plasma [9]): 1.7%
